Legend:
[1] = AUC in Beagle dog at 0.2 mg/kg, po by LC-MS/MS analysis; assay type: ADME, organism-based, Canis lupus familiaris; details: in vivo
[2] = Cmax in Beagle dog at 0.2 mg/kg, po by LC-MS/MS analysis; assay type: ADME, organism-based, Canis lupus familiaris; parameters: dose 0.2 mg/kg, route oral; details: in vivo
[3] = AUC in Beagle dog at 0.2 mg/kg, iv by LC-MS/MS analysis; assay type: ADME, organism-based, Canis lupus familiaris; details: in vivo
[4] = Aqueous solubility of compound in Japanese pharmacopoeia second fluid at pH 6.8 at 130 uM after 20 hrs by HPLC analysis; assay type: physicochemical
[5] = AUC in Sprague-Dawley rat at 1 mg/kg, iv by LC-MS/MS analysis; assay type: ADME, organism-based; details: in vivo
[6] = Half life in cynomolgus monkey at 0.2 mg/kg, iv by LC-MS/MS analysis; assay type: ADME, organism-based, Macaca fascicularis; details: in vivo
[7] = Half life in Beagle dog at 0.2 mg/kg, iv by LC-MS/MS analysis; assay type: ADME, organism-based, Canis lupus familiaris; details: in vivo
[8] = Volume of distribution at steady state in cynomolgus monkey at 0.2 mg/kg, iv by LC-MS/MS analysis; assay type: ADME, organism-based, Macaca fascicularis; details: in vivo, read-out: Vdss
CYP1A2 = biological target: T1, CYP1A2 (Homo sapiens, UniProt P05177); assay: Inhibition of CYP1A2 in human liver microsomes using phenacetin as substrate assessed as residual activity at 5 uM after 20 mins by HPLC analysis; assay type: ADME; details: probe phenacetin, read-out: Activity
T1 sequence (P05177 whole entry): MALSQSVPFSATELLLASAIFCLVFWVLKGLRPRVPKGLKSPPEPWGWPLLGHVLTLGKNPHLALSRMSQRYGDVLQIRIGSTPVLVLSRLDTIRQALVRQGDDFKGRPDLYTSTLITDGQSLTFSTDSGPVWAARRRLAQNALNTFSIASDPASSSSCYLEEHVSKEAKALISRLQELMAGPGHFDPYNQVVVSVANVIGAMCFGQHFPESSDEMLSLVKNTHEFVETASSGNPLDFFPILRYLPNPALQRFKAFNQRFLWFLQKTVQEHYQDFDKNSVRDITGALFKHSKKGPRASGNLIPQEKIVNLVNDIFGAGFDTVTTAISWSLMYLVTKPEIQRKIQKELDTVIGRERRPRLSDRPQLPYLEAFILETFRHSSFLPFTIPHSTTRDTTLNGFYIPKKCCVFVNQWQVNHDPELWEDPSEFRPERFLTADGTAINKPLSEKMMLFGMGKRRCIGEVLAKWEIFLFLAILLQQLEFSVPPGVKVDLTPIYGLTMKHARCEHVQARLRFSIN

[9] = Half life in Sprague-Dawley rat at 1 mg/kg, iv by LC-MS/MS analysis; assay type: ADME, organism-based; details: in vivo
[10] = Volume of distribution at steady state in Sprague-Dawley rat at 1 mg/kg, iv by LC-MS/MS analysis; assay type: ADME, organism-based; details: in vivo, read-out: Vdss
[11] = Tmax in cynomolgus monkey at 0.2 mg/kg, po by LC-MS/MS analysis; assay type: ADME, organism-based, Macaca fascicularis; details: in vivo
[12] = Tmax in Sprague-Dawley rat at 1 mg/kg, po by LC-MS/MS analysis; assay type: ADME, organism-based; details: in vivo
[13] = Total clearance in Beagle dog at 0.2 mg/kg, iv by LC-MS/MS analysis; assay type: ADME, organism-based, Canis lupus familiaris; details: in vivo
[14] = Cmax in Sprague-Dawley rat at 1 mg/kg, po by LC-MS/MS analysis; assay type: ADME, organism-based; parameters: dose 1 mg/kg, route oral; details: in vivo
[15] = Oral bioavailability in cynomolgus monkey at 0.2 mg/kg by LC-MS/MS analysis; assay type: ADME, organism-based, Macaca fascicularis; details: in vivo
[16] = AUC in Sprague-Dawley rat at 1 mg/kg, po by LC-MS/MS analysis; assay type: ADME, organism-based; details: in vivo
[17] = Cmax in cynomolgus monkey at 0.2 mg/kg, po by LC-MS/MS analysis; assay type: ADME, organism-based, Macaca fascicularis; parameters: dose 0.2 mg/kg, route oral; details: in vivo
CYP2C8 = biological target: T2, CYP2C8 (Homo sapiens, UniProt P10632); assay: Inhibition of CYP2C8 in human liver microsomes using amodiaquine as substrate assessed as residual activity at 5 uM after 20 mins by HPLC analysis; assay type: ADME; details: probe amodiaquine, read-out: Activity
T2 sequence (P10632 whole entry): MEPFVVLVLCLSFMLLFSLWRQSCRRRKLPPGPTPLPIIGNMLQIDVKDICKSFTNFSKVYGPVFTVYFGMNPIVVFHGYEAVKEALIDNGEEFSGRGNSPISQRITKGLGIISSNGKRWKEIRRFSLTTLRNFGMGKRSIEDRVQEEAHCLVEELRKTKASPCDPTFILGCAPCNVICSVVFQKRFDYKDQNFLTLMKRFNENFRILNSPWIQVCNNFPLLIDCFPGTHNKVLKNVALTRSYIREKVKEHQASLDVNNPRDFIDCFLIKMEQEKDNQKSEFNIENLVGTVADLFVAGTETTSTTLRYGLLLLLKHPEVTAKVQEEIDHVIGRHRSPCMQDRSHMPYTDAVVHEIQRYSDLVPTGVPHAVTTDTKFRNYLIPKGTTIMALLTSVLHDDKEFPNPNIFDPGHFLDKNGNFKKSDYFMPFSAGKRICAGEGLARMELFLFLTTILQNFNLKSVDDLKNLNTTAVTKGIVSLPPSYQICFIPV

Rattus norvegicus [18] = assay: In vivo inhibition of VAP-1 in Wistar rat plasma at 0.3 mg/kg, po after 1 hr in presence of [14C]-benzylamine by liquid scintillation counting analysis relative to control; assay type: functional
CYP2C19 = CYP2C19 (Homo sapiens, UniProt P33261); assay: Inhibition of CYP2C19 in human liver microsomes using S-mephenytoin as substrate assessed as residual activity at 5 uM after 20 mins by HPLC analysis; assay type: ADME; details: probe S-mephenytoin, read-out: Activity
[19] = Tmax in Beagle dog at 0.2 mg/kg, po by LC-MS/MS analysis; assay type: ADME, organism-based, Canis lupus familiaris; details: in vivo
[20] = Volume of distribution at steady state in Beagle dog at 0.2 mg/kg, iv by LC-MS/MS analysis; assay type: ADME, organism-based, Canis lupus familiaris; details: in vivo, read-out: Vdss
[21] = Total clearance in cynomolgus monkey at 0.2 mg/kg, iv by LC-MS/MS analysis; assay type: ADME, organism-based, Macaca fascicularis; details: in vivo
CYP3A4 = CYP3A4 (Homo sapiens, UniProt P08684); assay: Inhibition of CYP3A4 in human liver microsomes using midazolam as substrate assessed as residual activity at 5 uM after 20 mins by HPLC analysis; assay type: ADME; details: probe midazolam, read-out: Activity
[22] = AUC in cynomolgus monkey at 0.2 mg/kg, iv by LC-MS/MS analysis; assay type: ADME, organism-based, Macaca fascicularis; details: in vivo
[23] = Oral bioavailability in Beagle dog at 0.2 mg/kg by LC-MS/MS analysis; assay type: ADME, organism-based, Canis lupus familiaris; details: in vivo
Rattus norvegicus [24] = assay: In vivo inhibition of VAP-1 in Wistar rat plasma at 0.3 mg/kg, po after 6 hrs in presence of [14C]-benzylamine by liquid scintillation counting analysis relative to control; assay type: functional
[25] = Oral bioavailability in Sprague-Dawley rat at 1 mg/kg by LC-MS/MS analysis; assay type: ADME, organism-based; details: in vivo
[26] = AUC in cynomolgus monkey at 0.2 mg/kg, po by LC-MS/MS analysis; assay type: ADME, organism-based, Macaca fascicularis; details: in vivo
CYP2D6 = CYP2D6 (Homo sapiens, UniProt P10635); assay: Inhibition of CYP2D6 in human liver microsomes using dextromethorphan as substrate assessed as residual activity at 5 uM after 20 mins by HPLC analysis; assay type: ADME; details: probe dextromethorphan, read-out: Activity
[27] = Total clearance in Sprague-Dawley rat at 1 mg/kg, iv by LC-MS/MS analysis; assay type: ADME, organism-based; details: in vivo

CYP2D6, sequence (P10635 whole entry): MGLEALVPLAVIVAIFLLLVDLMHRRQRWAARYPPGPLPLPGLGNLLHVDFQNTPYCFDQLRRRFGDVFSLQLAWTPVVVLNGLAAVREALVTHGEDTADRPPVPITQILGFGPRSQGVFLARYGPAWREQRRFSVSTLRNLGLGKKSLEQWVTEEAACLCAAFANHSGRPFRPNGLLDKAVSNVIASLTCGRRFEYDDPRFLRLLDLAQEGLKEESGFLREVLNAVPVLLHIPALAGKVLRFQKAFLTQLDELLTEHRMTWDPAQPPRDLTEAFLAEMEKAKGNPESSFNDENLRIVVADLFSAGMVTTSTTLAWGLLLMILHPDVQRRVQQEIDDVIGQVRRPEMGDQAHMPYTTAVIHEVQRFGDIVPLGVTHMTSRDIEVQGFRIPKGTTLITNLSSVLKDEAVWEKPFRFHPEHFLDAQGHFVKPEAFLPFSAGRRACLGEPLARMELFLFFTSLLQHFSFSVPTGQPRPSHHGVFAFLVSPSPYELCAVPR
CYP2C19, sequence (P33261 whole entry): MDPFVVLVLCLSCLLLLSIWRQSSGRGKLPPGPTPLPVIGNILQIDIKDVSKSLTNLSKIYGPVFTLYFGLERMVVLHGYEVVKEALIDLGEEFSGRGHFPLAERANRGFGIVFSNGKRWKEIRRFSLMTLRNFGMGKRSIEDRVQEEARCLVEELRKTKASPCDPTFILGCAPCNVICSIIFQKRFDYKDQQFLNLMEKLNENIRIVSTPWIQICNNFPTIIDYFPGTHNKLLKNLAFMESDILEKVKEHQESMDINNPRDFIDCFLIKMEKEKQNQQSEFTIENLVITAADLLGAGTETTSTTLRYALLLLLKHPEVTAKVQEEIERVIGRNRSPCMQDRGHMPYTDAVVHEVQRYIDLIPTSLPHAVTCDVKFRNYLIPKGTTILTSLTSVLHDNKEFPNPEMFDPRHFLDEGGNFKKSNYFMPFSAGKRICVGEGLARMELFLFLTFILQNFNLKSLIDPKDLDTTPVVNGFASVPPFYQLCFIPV
CYP3A4, sequence (P08684 whole entry): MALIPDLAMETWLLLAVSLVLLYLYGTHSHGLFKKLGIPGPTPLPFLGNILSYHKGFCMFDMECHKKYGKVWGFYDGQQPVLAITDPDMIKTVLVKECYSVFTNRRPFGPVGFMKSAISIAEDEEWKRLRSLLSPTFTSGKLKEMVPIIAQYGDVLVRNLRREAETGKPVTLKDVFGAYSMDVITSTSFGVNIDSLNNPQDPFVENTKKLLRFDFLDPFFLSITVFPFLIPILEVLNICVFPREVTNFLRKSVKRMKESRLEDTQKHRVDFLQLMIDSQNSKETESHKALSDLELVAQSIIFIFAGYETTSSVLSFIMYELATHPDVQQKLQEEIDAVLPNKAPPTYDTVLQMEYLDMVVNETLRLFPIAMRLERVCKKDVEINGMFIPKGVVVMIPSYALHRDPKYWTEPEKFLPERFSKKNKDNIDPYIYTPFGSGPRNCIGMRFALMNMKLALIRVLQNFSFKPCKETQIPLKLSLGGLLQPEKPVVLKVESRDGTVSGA

Cc1ccc(OC2CN(c3cccc(COC(=O)NC(=N)N)c3F)C2)cn1.O=C(O)C(O)C(O)C(=O)O
AUC [1]: 297 ng·h/mL
Cmax [2]: 29.9 ng/mL
AUC [3]: 380 ng·h/mL
solubility at 20 h, 130 µM [4]: ≥ 100 µM
AUC [5]: 3200 ng·h/mL
half-life [6]: 64 h
half-life [7]: 8.9 h
Vd [8]: 1.39 L/kg
activity at 20 min, 5 µM (CYP1A2): 99%
half-life [9]: 3.3 h
Vd [10]: 1.06 L/kg
Tmax [11]: 2.7 h
Tmax [12]: 0.8 h
clearance [13]: 8.9 mL/min/kg
Cmax [14]: 401 ng/mL
bioavailability [15]: 85%
AUC [16]: 2320 ng·h/mL
Cmax [17]: 201 ng/mL
activity at 20 min, 5 µM (CYP2C8): 91%
inhibition in vivo at 0.3 mg/kg (Rattus norvegicus [18]): 92%
activity at 20 min, 5 µM (CYP2C19): 99%
Tmax [19]: 0.8 h
Vd [20]: 4.43 L/kg
clearance [21]: 0.7 mL/min/kg
activity at 20 min, 5 µM (CYP3A4): 85%
AUC [22]: 5350 ng·h/mL
bioavailability [23]: 78%
inhibition in vivo at 0.3 mg/kg (Rattus norvegicus [24]): 74%
bioavailability [25]: 73%
AUC [26]: 4510 ng·h/mL
activity at 20 min, 5 µM (CYP2D6): 95%
clearance [27]: 5.2 mL/min/kg

Source: ChEMBL document CHEMBL4043269, “Synthesis and structure activity relationships of carbamimidoylcarbamate derivatives as novel vascular adhesion protein-1 inhibitors” (Bioorg Med Chem, 2017)
